Results: the NIST ThermoML archive (doi:10.1016/j.jct.2012.12.010)
± gives the expanded uncertainty stated by the source.

Assays:
[1] = mn = molality of the nth substance listed, in mol/kg; conditions: 101 kPa, Liquid, m2 = 0; for speed of sound: Linear variable-path acoustic interferometer; for mass density: Pycnometric method
[2] = 101 kPa, Liquid; for speed of sound: Linear variable-path acoustic interferometer; for mass density: Pycnometric method

| Structure (SMILES) | speed of sound ([1]; 275.15 K) [m/s] | mass density ([1]; 275.15 K) [kg/m3] | speed of sound ([1]; 279.15 K) [m/s] | mass density ([1]; 279.15 K) [kg/m3] | speed of sound ([1]; 283.15 K) [m/s] | mass density ([1]; 283.15 K) [kg/m3] | speed of sound ([2]; 275.15 K) [m/s] | mass density ([2]; 275.15 K) [kg/m3] | speed of sound ([2]; 279.15 K) [m/s] | mass density ([2]; 279.15 K) [kg/m3] | speed of sound ([2]; 283.15 K) [m/s] | mass density ([2]; 283.15 K) [kg/m3] |
| --- | --- | --- | --- | --- | --- | --- | --- | --- | --- | --- | --- | --- |
| O [water] + CC(C)[C@H](N)C(=O)O | 1412.2 ± 2.8 | 999.94 ± 0.47 | 1430.6 ± 2.8 | 999.94 ± 0.47 | 1447.3 ± 2.8 | 999.7 ± 0.46 |  |  |  |  |  |  |
| O [water] |  |  |  |  |  |  | 1412.2 ± 2.8 | 999.94 ± 0.47 | 1430.6 ± 2.8 | 999.94 ± 0.47 | 1447.3 ± 2.8 | 999.7 ± 0.46 |
| O [water] + C[C@@H](O)[C@H](N)C(=O)O | 1412.2 ± 2.8 | 999.94 ± 0.47 | 1430.6 ± 2.8 | 999.94 ± 0.47 | 1447.3 ± 2.8 | 999.7 ± 0.46 |  |  |  |  |  |  |
| O [water] + N=C(N)NCCC[C@H](N)C(=O)O | 1412.2 ± 2.8 | 999.94 ± 0.47 | 1430.6 ± 2.8 | 999.94 ± 0.47 | 1447.3 ± 2.8 | 999.7 ± 0.46 |  |  |  |  |  |  |
